Source: patent US20250223268A1, “4-Methylsulfonylbenzamide Compound, Preparation Method, Herbicidal Composition And Use” (Jiangsu Flag Chemical Industry Co., Ltd., priority 2022, published 2025)

Key:
Assay type in all cases: in vivo
Cyperus iria = test: Greenhouse herbicidal activity assay, post-emergence; conditions: Post-emergence test, rate 150 g a.i./hm^2, grade by fresh weight inhibition rate; for pest or weed control at 150 g/ha: Cyperus iria, read-out: Control efficacy grade, Cyperus iria
In short: (§1)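 Graded A (≥80%) to E (<20%) by fresh weight inhibition, read 14-21 days after spraying. Plants were pot-grown in a growth chamber and received foliar application at the 3-6 leaf stage, being air-dried and returned to the chamber afterwards.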

Echinochloa crusgalli [1] = test: as above; conditions: Post-emergence test, rate 150 g a.i./hm^2, grade by fresh weight inhibition rate; for pest or weed control at 150 g/ha: Echinochloa crus-galli, read-out: Control efficacy grade, Echinochloa crusgalli
In short: as §1

Leptochloa chinensis [2] = test: as above; conditions: Post-emergence test, rate 150 g a.i./hm^2, grade by fresh weight inhibition rate; for pest or weed control at 150 g/ha: Dinebra chinensis, read-out: Control efficacy grade, Leptochloa chinensis
In short: as §1

Eclipta prostrata = test: as above; conditions: Post-emergence test, rate 150 g a.i./hm^2, grade by fresh weight inhibition rate; for pest or weed control at 150 g/ha: Eclipta prostrata, read-out: Control efficacy grade, Eclipta prostrata
In short: as §1

Digitaria sanguinalis [3] = test: as above; conditions: Post-emergence test, rate 150 g a.i./hm^2, grade by fresh weight inhibition rate; for pest or weed control at 150 g/ha: Digitaria sanguinalis, read-out: Control efficacy grade, Digitaria sanguinalis
In short: as §1

Zea mays = test: Greenhouse herbicidal activity and crop safety comparison (Test Example 2)
In short: (§2)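 Fresh weight inhibition, banded into grades A to E (E <20%), was rated 14-21 days after foliar spraying of 3-6 leaf plants, or 14-30 days after a soil spray applied 24 h post-sowing.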

Digitaria sanguinalis [4] = test: as above
In short: as §2

Echinochloa crusgalli [5] = test: as above; conditions: for inhibition at 75 g/ha / inhibition at 150 g/ha: Echinochloa crus-galli, read-out: Echinochloa crusgalli, control efficacy grading (fresh weight inhibition rate); for inhibition at 75 g/ha: Rate 75 g/ha; for inhibition at 150 g/ha / Echinochloa crusgalli, control efficacy grading (fresh weight inhibition rate): Rate 150 g/ha
In short: as §2

[6] = system: Oryza sativa subsp. indica; test: as above
In short: as §2

[7] = system: Oryza sativa subsp. japonica; test: as above
In short: as §2

Leptochloa chinensis [8] = test: as above; conditions: Rate 150 g/ha
In short: as §2

[9] = Digitaria sanguinalis, Rate 75 g/ha, read-out: Digitaria sanguinalis, control efficacy grading (fresh weight inhibition rate)
[10] = Digitaria sanguinalis, Rate 150 g/ha, read-out: Digitaria sanguinalis, control efficacy grading (fresh weight inhibition rate)

Compound | Zea mays, grading of fresh weight inhibition rate (crop safety) (Zea mays; Rate 18.75 g/ha) | Zea mays, grading of fresh weight inhibition rate (crop safety) (Zea mays; Rate 75 g/ha) | Zea mays, grading of fresh weight inhibition rate (crop safety) (Zea mays; Rate 150 g/ha) | inhibition at 75 g/ha (Digitaria sanguinalis [4]; [9]) | inhibition at 150 g/ha (Digitaria sanguinalis [4]; [10]) | Control efficacy grade, Cyperus iria (Cyperus iria) | Control efficacy grade, Echinochloa crusgalli (Echinochloa crusgalli [1]) | Control efficacy grade, Leptochloa chinensis (Leptochloa chinensis [2]) | Control efficacy grade, Eclipta prostrata (Eclipta prostrata) | Control efficacy grade, Digitaria sanguinalis (Digitaria sanguinalis [3]) | Oryza sativa subsp. indica, grading of fresh weight inhibition rate (crop safety) ([6]; Rate 150 g/ha) | Oryza sativa subsp. japonica, grading of fresh weight inhibition rate (crop safety) ([7]; Rate 150 g/ha) | Echinochloa crusgalli, control efficacy grading (fresh weight inhibition rate) (Echinochloa crusgalli [5]) | Leptochloa chinensis, control efficacy grading (fresh weight inhibition rate) (Leptochloa chinensis [8]) | also measured
CCC[S+]([O-])c1c(S(C)(=O)=O)ccc(C(=O)Nc2nonc2C)c1Cl (racemic) [Compound 4-2, 2-chloro-N-(4-methyl-1,2,5-oxadiazol-3-yl)-4-(methylsulfonyl)-3-(propylsulfinyl)benzamide] | E (Fresh weight inhibition rate<20%) | E (Fresh weight inhibition rate<20%) | E (Fresh weight inhibition rate<20%) | 80 to 100% | 80 to 100% | – | – | – | – | – | – | – | – | – | pest or weed control at 150 g/ha (Cyperus iria): 80 to 100%; pest or weed control at 150 g/ha (Echinochloa crusgalli [1]): 80 to 100%; pest or weed control at 150 g/ha (Leptochloa chinensis [2]): 80 to 100%; pest or weed control at 150 g/ha (Eclipta prostrata): 80 to 100%; pest or weed control at 150 g/ha (Digitaria sanguinalis [3]): 80 to 100%
CCC[S+]([O-])c1c(S(C)(=O)=O)ccc(C(=O)Nc2nonc2C)c1Cl (single isomer, unassigned) [Compound 4-3] | E (Fresh weight inhibition rate<20%) | E (Fresh weight inhibition rate<20%) | E (Fresh weight inhibition rate<20%) | – | – | A (Fresh weight inhibition rate≥80% to 100%) | A (Fresh weight inhibition rate≥80% to 100%) | A (Fresh weight inhibition rate≥80% to 100%) | A (Fresh weight inhibition rate≥80% to 100%) | A (Fresh weight inhibition rate≥80% to 100%) | – | – | – | – | Digitaria sanguinalis, control efficacy grading (fresh weight inhibition rate) (Digitaria sanguinalis [4]; Rate 18.75 g/ha): A (Fresh weight inhibition rate≥80% to 100%); Digitaria sanguinalis, control efficacy grading (fresh weight inhibition rate) (Digitaria sanguinalis [4]; Rate 75 g/ha): A (Fresh weight inhibition rate≥80% to 100%); Digitaria sanguinalis, control efficacy grading (fresh weight inhibition rate) (Digitaria sanguinalis [4]; Rate 150 g/ha): A (Fresh weight inhibition rate≥80% to 100%)
CCC[S+]([O-])c1c(S(C)(=O)=O)ccc(C(=O)Nc2nonc2C)c1Cl (single isomer, unassigned) [Compound 4-4] | E (Fresh weight inhibition rate<20%) | E (Fresh weight inhibition rate<20%) | E (Fresh weight inhibition rate<20%) | – | – | A (Fresh weight inhibition rate≥80% to 100%) | A (Fresh weight inhibition rate≥80% to 100%) | A (Fresh weight inhibition rate≥80% to 100%) | A (Fresh weight inhibition rate≥80% to 100%) | A (Fresh weight inhibition rate≥80% to 100%) | – | – | – | – | Digitaria sanguinalis, control efficacy grading (fresh weight inhibition rate) (Digitaria sanguinalis [4]; Rate 75 g/ha): A (Fresh weight inhibition rate≥80% to 100%); Digitaria sanguinalis, control efficacy grading (fresh weight inhibition rate) (Digitaria sanguinalis [4]; Rate 150 g/ha): A (Fresh weight inhibition rate≥80% to 100%)
Cn1ncnc1NC(=O)c1ccc(S(C)(=O)=O)c(S(C)(=O)=O)c1Cl [CK3, reference compound] | – | E (Fresh weight inhibition rate<20%) | D (Fresh weight inhibition rate≥20% to <40%) | < 20% | 20 to 40% | – | – | – | – | – | B (Fresh weight inhibition rate≥260% to <80%) | C (Fresh weight inhibition rate≥40% to <60%) | – | – | inhibition at 75 g/ha (Echinochloa crusgalli [5]): 40 to 60%; inhibition at 150 g/ha (Echinochloa crusgalli [5]): 80 to 100%; Oryza sativa subsp. indica, grading of fresh weight inhibition rate (crop safety) ([6]; Rate 75 g/ha): D (Fresh weight inhibition rate≥20% to <40%); Oryza sativa subsp. japonica, grading of fresh weight inhibition rate (crop safety) ([7]; Rate 75 g/ha): D (Fresh weight inhibition rate≥20% to <40%)
CCS(=O)(=O)c1c(S(C)(=O)=O)ccc(C(=O)Nc2ncnn2C)c1Cl [CK4, reference compound] | – | E (Fresh weight inhibition rate<20%) | D (Fresh weight inhibition rate≥20% to <40%) | 20 to 40% | 40 to 60% | – | – | – | – | – | B (Fresh weight inhibition rate≥260% to <80%) | C (Fresh weight inhibition rate≥40% to <60%) | – | – | inhibition at 75 g/ha (Echinochloa crusgalli [5]): 40 to 60%; Oryza sativa subsp. indica, grading of fresh weight inhibition rate (crop safety) ([6]; Rate 75 g/ha): C (Fresh weight inhibition rate≥40% to <60%); Oryza sativa subsp. japonica, grading of fresh weight inhibition rate (crop safety) ([7]; Rate 75 g/ha): C (Fresh weight inhibition rate≥40% to <60%)
Cc1nonc1NC(=O)c1ccc(S(C)(=O)=O)c([S+](C)[O-])c1Cl (centres unmarked) [CK6, reference compound] | E (Fresh weight inhibition rate<20%) | D (Fresh weight inhibition rate≥20% to <40%) | D (Fresh weight inhibition rate≥20% to <40%) | 40 to 60% | 40 to 60% | – | – | – | – | – | – | – | – | – | inhibition at 18.75 g/ha (Digitaria sanguinalis [4]; Digitaria sanguinalis, Rate 18.75 g/ha, read-out: Digitaria sanguinalis, control efficacy grading (fresh weight inhibition rate)): < 20%
CCCS(=O)(=O)c1c(S(C)(=O)=O)ccc(C(=O)Nc2nnc(C3CC3)o2)c1Cl [Compound 3-619] | – | – | – | – | – | A (Fresh weight inhibition rate≥80% to 100%) | A (Fresh weight inhibition rate≥80% to 100%) | A (Fresh weight inhibition rate≥80% to 100%) | A (Fresh weight inhibition rate≥80% to 100%) | A (Fresh weight inhibition rate≥80% to 100%) | E (Fresh weight inhibition rate<20%) | E (Fresh weight inhibition rate<20%) | A (Fresh weight inhibition rate≥80% to 100%) | A (Fresh weight inhibition rate≥80% to 100%) | –
CC(C)S(=O)(=O)c1c(S(C)(=O)=O)ccc(C(=O)Nc2nnc(C3CC3)o2)c1Cl [Compound 3-624, 2-chloro-N-(5-cyclopropyl-1,3,4-oxadiazol-2-yl)-3-(isopropylsulfonyl)-4-(methylsulfonyl)benzamide] | – | – | – | – | – | – | – | – | – | – | E (Fresh weight inhibition rate<20%) | E (Fresh weight inhibition rate<20%) | – | – | pest or weed control at 150 g/ha (Cyperus iria): 80 to 100%; pest or weed control at 150 g/ha (Echinochloa crusgalli [1]): 80 to 100%; pest or weed control at 150 g/ha (Leptochloa chinensis [2]): 80 to 100%; pest or weed control at 150 g/ha (Eclipta prostrata): 80 to 100%; pest or weed control at 150 g/ha (Digitaria sanguinalis [3]): 80 to 100%; inhibition at 150 g/ha (Echinochloa crusgalli [5]): 80 to 100%; inhibition at 150 g/ha (Leptochloa chinensis [8]; Dinebra chinensis, read-out: Leptochloa chinensis, control efficacy grading (fresh weight inhibition rate)): 80 to 100%
CS(=O)(=O)c1ccc(C(=O)Nc2nnc(C3CC3)o2)c(Cl)c1S(=O)(=O)C1CC1 [Compound 3-655] | – | – | – | – | – | A (Fresh weight inhibition rate≥80% to 100%) | A (Fresh weight inhibition rate≥80% to 100%) | A (Fresh weight inhibition rate≥80% to 100%) | A (Fresh weight inhibition rate≥80% to 100%) | A (Fresh weight inhibition rate≥80% to 100%) | E (Fresh weight inhibition rate<20%) | E (Fresh weight inhibition rate<20%) | A (Fresh weight inhibition rate≥80% to 100%) | A (Fresh weight inhibition rate≥80% to 100%) | –
C=CCS(=O)(=O)c1c(S(C)(=O)=O)ccc(C(=O)Nc2nnc(C3CC3)o2)c1Cl [Compound 3-690] | – | – | – | – | – | A (Fresh weight inhibition rate≥80% to 100%) | A (Fresh weight inhibition rate≥80% to 100%) | A (Fresh weight inhibition rate≥80% to 100%) | A (Fresh weight inhibition rate≥80% to 100%) | B (Fresh weight inhibition rate≥260% to <80%) | E (Fresh weight inhibition rate<20%) | E (Fresh weight inhibition rate<20%) | A (Fresh weight inhibition rate≥80% to 100%) | A (Fresh weight inhibition rate≥80% to 100%) | –
